Measurements published in patent US6908935B2, “Calcium receptor modulating agents” (Amgen Inc., priority 2002, dated 2005).

Each compound was assayed against T1, human parathyroid cell Ca^2+ receptor (hPCaR) (Homo sapiens, UniProt P41180) (assay: [Ca2+]i measurement with fluo-3 in HEK 293 4.0-7 cells stably transfected with hPCaR). Settings: fluo-3 fluorescence (485/530 nm), effect on [Ca^2+]i.
T1 construct: expressed in transfected cells
T1 sequence (P41180 20-1078): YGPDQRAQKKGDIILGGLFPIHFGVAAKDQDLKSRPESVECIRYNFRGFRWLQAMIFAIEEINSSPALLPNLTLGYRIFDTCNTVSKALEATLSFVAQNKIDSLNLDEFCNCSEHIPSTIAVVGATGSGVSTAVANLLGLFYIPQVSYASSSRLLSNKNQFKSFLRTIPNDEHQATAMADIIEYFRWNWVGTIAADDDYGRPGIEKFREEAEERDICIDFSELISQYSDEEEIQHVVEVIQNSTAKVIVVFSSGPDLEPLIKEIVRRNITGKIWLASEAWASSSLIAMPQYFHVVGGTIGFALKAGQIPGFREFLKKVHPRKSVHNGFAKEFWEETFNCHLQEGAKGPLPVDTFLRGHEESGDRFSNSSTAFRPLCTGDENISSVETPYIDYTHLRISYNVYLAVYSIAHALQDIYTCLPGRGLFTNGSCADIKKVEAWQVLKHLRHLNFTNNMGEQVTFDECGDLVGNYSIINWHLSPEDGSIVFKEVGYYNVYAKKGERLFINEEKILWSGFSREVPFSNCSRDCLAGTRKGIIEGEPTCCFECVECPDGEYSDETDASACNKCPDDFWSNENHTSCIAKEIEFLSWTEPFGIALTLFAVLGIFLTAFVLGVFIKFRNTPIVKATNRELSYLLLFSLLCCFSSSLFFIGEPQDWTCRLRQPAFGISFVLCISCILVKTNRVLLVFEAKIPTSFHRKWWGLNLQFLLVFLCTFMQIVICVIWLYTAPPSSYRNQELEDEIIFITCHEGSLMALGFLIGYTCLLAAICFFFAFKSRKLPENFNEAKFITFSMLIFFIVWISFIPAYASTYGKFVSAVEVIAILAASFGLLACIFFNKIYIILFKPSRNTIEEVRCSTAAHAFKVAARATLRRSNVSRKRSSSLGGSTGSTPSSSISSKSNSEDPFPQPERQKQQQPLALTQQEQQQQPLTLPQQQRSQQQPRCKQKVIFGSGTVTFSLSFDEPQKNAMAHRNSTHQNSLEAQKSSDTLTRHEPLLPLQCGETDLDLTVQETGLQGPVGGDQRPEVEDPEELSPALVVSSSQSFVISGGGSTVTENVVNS
Assay type: cell-based
Method: The activities of the compounds of the present invention on calcium receptors were measured. In one embodiment, the measurement was performed in accordance with the method described in Example 4 of Nemeth et al., PCT/US95/13704 (International Publication No. WO96/12697) herein incorporated by reference.
A 4.0-kb NotI-HindIII fragment of the human parathyroid cell Ca^2+ receptor (hPCaR) cDNA was subcloned into the mammalian expression vector pCEP4 (Invitrogen) containing the hygromycin-resistant gene as a selectable marker. This plasmid was transfected into HEK 293 cells by calcium phosphate precipitation. Transfected cells were grown in Dulbecco's modified Eagle's medium containing 10% fetal bovine serum and hygromycin (200 μg/mL). Hygromycin-resistant colonies were subcloned and assayed for hPCaR mRNA by solution hybridization using a ^32P-labeled RNA probe complementary to the (4.0 kb) hPCaR sequence (Garrett, et al., J. Biol. Chem. 270, 12919-12925 (1995)). Clone 7 was used to assess the effects of compounds on [Ca^2+]i. This stably transfected cell line is termed HEK 293 4.0-7. For measurements of [Ca^2+]i, the cells were recovered from tissue culture flasks by brief treatment with 0.02% EDTA and then washed and resuspended in PCB containing 1 mM CaCl2 and 0.1% Bovine Serum Albumin (“BSA”). The cells were loaded with fluo-3 by incubation for 30 min at 37° C., with parathyroid cell buffer (126 mM NaCl, 4 mM KCl, 1 mM MgSO4, 0.7 mM K2HPO/KH2PO4, 20 mM HEPES.NaOH (pH 7.45)) containing 0.5% BSA in lmM CaCl2 and 2 μM fluo-3 acetoxymethyl ester. The cells were subsequently washed, each test compound was added to the cells and the fluorescence was recorded by using excitation and emission wavelengths of 485 and 530 nm, respectively.

EC50	Structure (SMILES)
≤ 10 µM	COc1ccc(CN[C@H](C)c2ccccc2)cc1-c1cnc(OCC(F)(F)F)nc1 [(1R)-N-((4-(methyloxy)-3-(2-((2,2,2-trifluoroethyl)oxy)-5-pyrimidinyl)phenyl)methyl)-1-phenylethanamine]
≤ 10 µM	COCCn1cc(-c2cc(CN[C@H](C)c3cccc4ccccc34)ccc2OC)ccc1=O [1-(2-(methyloxy)ethyl)-5-(2-(methyloxy)-5-((((1R)-1-(1-naphthalenyl)ethyl)amino)methyl)phenyl)-2(1H)-pyridinone]
≤ 10 µM	COc1cccc([C@@H](C)NCc2cccc(-c3cncnc3)c2)c1 [(1R)-1-(3-(methyloxy)phenyl)-N-((3-(5-pyrimidinyl)phenyl)methyl)ethanamine]
≤ 10 µM	COc1ccc(-c2cc(CN[C@H](C)c3cccc(OC)c3)ccc2NS(C)(=O)=O)cc1 [N-(4′-(methyloxy)-5-((((1R)-1-(3-(methyloxy)phenyl)ethyl)amino)methyl)-1,1′-biphenyl-2-yl)methanesulfonamide]
≤ 10 µM	COc1ccc(CN[C@H](C)c2cccc3ccccc23)cc1-c1csc(N2CCCCC2)n1 [(1R)-N-((4-(methyloxy)-3-(2-(1-piperidinyl)-1,3-thiazol-4-yl)phenyl)methyl)-1-(1-naphthalenyl)ethanamine]
≤ 10 µM	COc1ccc(CN[C@H](C)c2ccccc2)cc1-c1ccc(S(C)(=O)=O)cc1 [(1R)-N-((6-(methyloxy)-4′-(methylsulfonyl)-1,1′-biphenyl-3-yl)methyl)-1-phenylethanamine]
≤ 10 µM	COc1ccc(CN[C@H](C)c2ccc3ccccc3c2)cc1-c1cnccn1 [(1R)-N-((4-(methyloxy)-3-(2-pyrazinyl)phenyl)methyl)-1-(2-naphthalenyl)ethanamine]
≤ 10 µM	COCCOc1ccc(CN[C@H](C)c2cccc(OC)c2)cc1-c1ccc(C(F)(F)F)cc1 [(1R)-N-((6-((2-(methyloxy)ethyl)oxy)-4′-(trifluoromethyl)-1,1′-biphenyl-3-yl)methyl)-1-(3-(methyloxy)phenyl)ethanamine]
≤ 10 µM	COc1cccc([C@@H](C)NCc2ccc(OC)c(-c3ccc4c(ccn4CC(N)=O)c3)c2)c1 [2-(5-(2-(methyloxy)-5-((((1R)-1-(3-(methyloxy)phenyl)ethyl)amino)methyl)phenyl)-1H-indol-1-yl)acetamide]
≤ 10 µM	COc1cccc([C@@H](C)NCc2ccc(OC)c(-c3ccc4nccnc4c3)c2)c1 [(1R)-1-(3-(methyloxy)phenyl)-N-((4-(methyloxy)-3-(6-quinoxalinyl)phenyl)methyl)ethanamine]
≤ 10 µM	COc1ccc(CN[C@H](C)c2cccc3ccccc23)cc1-c1nc2ccccc2n1C [(1R)-N-((3-(1-methyl-1H-benzimidazol-2-yl)-4-(methyloxy)phenyl)methyl)-1-(1-naphthalenyl)ethanamine]
≤ 10 µM	COc1ccc(CN[C@H](C)c2cccc3ccccc23)cc1-c1ccc(C(F)(F)F)cc1 [(1R)-N-((6-(methyloxy)-4′-(trifluoromethyl)-1,1′-biphenyl-3-yl)methyl)-1-(1-naphthalenyl)ethanamine]
≤ 10 µM	COc1ccc([C@@H](C)NCc2ccc(OC)c(-c3cnccn3)c2)cc1 [(1R)-1-(4-(methyloxy)phenyl)-N-((4-(methyloxy)-3-(2-pyrazinyl)phenyl)methyl)ethanamine]
≤ 10 µM	COc1cccc([C@@H](C)NCc2ccc(OC)c(-c3cnc(OCC(F)(F)F)nc3)c2)c1 [(1R)-1-(3-(methyloxy)phenyl)-N-((4-(methyloxy)-3-(2-((2,2,2-trifluoroethyl)oxy)-5-pyrimidinyl)phenyl)methyl)ethanamine]
≤ 10 µM	COc1ccc(CNC(C)c2cccc(C)c2)cc1-c1ccc(C(F)(F)F)cc1 (stereo not drawn) [N-((6-(methyloxy)-4′-(trifluoromethyl)-1,1′-biphenyl-3-yl)methyl)-1-(3-methylphenyl)ethanamine]
≤ 10 µM	C[C@@H](NCc1cccc(-c2cncc(C(N)=O)c2)c1)c1ccc2ccccc2c1 [Example 461, 5-(3-((((1R)-1-(2-naphthalenyl)ethyl)amino)methyl)phenyl)-3-pyridinecarboxamide]
≤ 10 µM	COc1cccc([C@@H](C)NCc2ccc(OC)c(-c3cnc4c(ccn4C)c3)c2)c1 [(1R)-N-((4-(methyloxy)-3-(1-methyl-1H-pyrrolo[2,3-b]pyridin-5-yl)phenyl)methyl)-1-(3-(methyloxy)phenyl)ethanamine]
≤ 10 µM	C[C@@H](NCc1ccc(N2CCCC2)cc1)c1ccccc1 [(1R)-1-phenyl-N-((4-(1-pyrrolidinyl)phenyl)methyl)ethanamine]
≤ 10 µM	COc1cccc([C@@H](C)NCc2ccc(OC)c(-c3cccc(C#N)c3)c2)c1 [2′-(methyloxy)-5′-((((1R)-1-(3-(methyloxy)phenyl)ethyl)amino)methyl)-1,1′-biphenyl-3-carbonitrile]
≤ 10 µM	C[C@@H](NCc1ccc(F)c(-c2ccc(C(F)(F)F)cc2)c1)c1ccccc1 [(1R)-N-((6-fluoro-4′-(trifluoromethyl)-1,1′-biphenyl-3-yl)methyl)-1-phenylethanamine]
≤ 10 µM	COc1ccc(CN[C@H](C)c2ccc3ccccc3c2)cc1-c1nccs1 [(1R)-N-((4-(methyloxy)-3-(1,3-thiazol-2-yl)phenyl)methyl)-1-(2-naphthalenyl)ethanamine]
≤ 10 µM	COc1ccc(CN[C@H](C)c2ccccc2)cc1-c1csc(C)n1 [(1R)-N-((4-(methyloxy)-3-(2-methyl-1,3-thiazol-4-yl)phenyl)methyl)-1-phenylethanamine]
≤ 10 µM	COc1cccc([C@@H](C)NCc2ccc(OC)c(-c3ccc4ccccc4c3)c2)c1 [(1R)-N-((4-(methyloxy)-3-(2-naphthalenyl)phenyl)methyl)-1-(3-(methyloxy)phenyl)ethanamine]
≤ 10 µM	COc1ccc(-c2cc(CN[C@H](C)c3ccccc3)ccc2NS(C)(=O)=O)cc1 [N-(4′-(methyloxy)-5-((((1R)-1-phenylethyl)amino)methyl)-1,1′-biphenyl-2-yl)methanesulfonamide]
≤ 10 µM	C[C@@H](NCc1cccc(-c2ccc3c(c2)OCO3)c1)c1ccccc1 [(1R)-N-((3-(1,3-benzodioxol-5-yl)phenyl)methyl)-1-phenylethanamine]
≤ 10 µM	COc1cccc(-c2cc(CN[C@H](C)c3cccc4ccccc34)ccc2OC)c1 [(1R)-N-((3′,6-bis(methyloxy)-1,1′-biphenyl-3-yl)methyl)-1-(1-naphthalenyl)ethanamine]
≤ 10 µM	COCCn1cc(-c2cc(CN[C@H](C)c3cccc(OC)c3)ccc2OC)ccc1=O [1-(2-(methyloxy)ethyl)-5-(2-(methyloxy)-5-((((1R)-1-(3-(methyloxy)phenyl)ethyl)amino)methyl)phenyl)-2-(1H)-pyridinone]
≤ 10 µM	COc1ccc(-c2cc(CN[C@H](C)c3cccc4ccccc34)ccc2OC)nc1 [(1R)-N-((4-(methyloxy)-3-(5-(methyloxy)-2-pyridinyl)phenyl)methyl)-1-(1-naphthalenyl)ethanamine]
≤ 10 µM	COc1ccc(CNC(C)c2cccc(N(C)C)c2)cc1-c1ccc(C(F)(F)F)cc1 (stereo not drawn)
≤ 10 µM	COc1ccc(-c2cc(CN[C@H](C)c3cccc4ccccc34)ccc2OC)cn1 [(1R)-N-((4-(methyloxy)-3-(6-(methyloxy)-3-pyridinyl)phenyl)methyl)-1-(1-naphthalenyl)ethanamine]
